Reference: the supplement of paper PMC10307832

Tests used:
Assay in all cases: relative viability (nuclei count vs DMSO), 5 days (fraction); higher = more cells survive
[1] = compound: C1COCCN1C2=NC(=NC3=C2OC4=C3C=CC=N4)C5=CC(=CC=C5)NC(=O)C6=CN=C(C=C6)N + Cc1nc(NC(=O)N2CCC[C@H]2C(N)=O)sc1-c1ccnc(C(C)(C)C(F)(F)F)c1 [Alpelisib] (partner 2 µM)
Summary of the method: (§1)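 Medians of duplicate plates are given as relative viability. That measure is the nuclei count in treated wells divided by the count in vehicle wells. Counts were taken on 4× images of lung cancer cell lines in 1536-well plates, 5 days after pin-tool dosing the day after seeding with one drug alone or a fixed anchor-drug dose plus five library-drug doses (not always all listed) in √10 steps.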

SGI-1776 + Decitabine = compound: CN1CCC(CNc2ccc3ncc(-c4cccc(OC(F)(F)F)c4)n3n2)CC1 [SGI-1776] + Nc1ncn([C@H]2C[C@H](O)[C@@H](CO)O2)c(=O)n1 [Decitabine] (partner 2 µM)
Summary of the method: as §1

Entinostat + Pictilisib = compound: Nc1ccccc1NC(=O)c1ccc(CNC(=O)OCc2cccnc2)cc1 [Entinostat] + CS(=O)(=O)N1CCN(Cc2cc3nc(-c4cccc5[nH]ncc45)nc(N4CCOCC4)c3s2)CC1 [Pictilisib] (partner 1 µM)
Summary of the method: as §1

Entinostat + Phenformin = compound: Nc1ccccc1NC(=O)c1ccc(CNC(=O)OCc2cccnc2)cc1 [Entinostat] + N=C(N)NC(=N)NCCc1ccccc1 [Phenformin] (partner 250 µM)
Summary of the method: as §1

Row | Cell Line | relative viability ([1]; first compound 0.02 µM) | relative viability ([1]; first compound 0.06325 µM) | relative viability ([1]; first compound 0.2 µM) | relative viability ([1]; first compound 0.6325 µM) | relative viability ([1]; first compound 2 µM) | relative viability (SGI-1776 + Decitabine; first compound 0.08 µM) | relative viability (SGI-1776 + Decitabine; first compound 0.8 µM) | relative viability (SGI-1776 + Decitabine; first compound 2.53 µM) | relative viability (SGI-1776 + Decitabine; first compound 8 µM) | relative viability (Entinostat + Pictilisib; first compound 0.02 µM) | relative viability (Entinostat + Pictilisib; first compound 0.06325 µM) | relative viability (Entinostat + Pictilisib; first compound 0.2 µM) | relative viability (Entinostat + Pictilisib; first compound 0.6325 µM) | relative viability (Entinostat + Pictilisib; first compound 2 µM) | relative viability (Entinostat + Phenformin; first compound 0.02 µM) | relative viability (Entinostat + Phenformin; first compound 0.06325 µM) | relative viability (Entinostat + Phenformin; first compound 0.2 µM) | relative viability (Entinostat + Phenformin; first compound 0.6325 µM) | relative viability (Entinostat + Phenformin; first compound 2 µM)
1 | EKVX | 0.838 | 0.787 | 0.94 | 0.867 | 0.572 | 0.291 | 0.397 | 0.355 | 0.305 | 0.441 | 0.517 | 0.36 | 0.298 | 0.217 | 0.225 | 0.243 | 0.227 | 0.222 | 0.205
2 | LC-2-ad | 0.824 | 0.83 | 0.893 | 0.782 | 0.531 | 0.806 | 0.811 | 0.737 | 0.779 | 0.44 | 0.5 | 0.431 | 0.126 | 0.124 | 0.568 | 0.566 | 0.579 | 0.365 | 0.208
3 | ABC-1 | 1.03 | 1.05 | 0.981 | 0.971 | 0.695 | 1.08 | 1.09 | 0.909 | 0.954 | 0.668 | 1.07 | 0.7 | 0.452 | 0.279 | 0.215 | 0.267 | 0.263 | 0.268 | 0.215
4 | NCI-H596 | 0.497 | 0.51 | 0.691 | 0.51 | 0.394 | 1.02 | 1.05 | 1.15 | 0.997 | 0.401 | 0.4 | 0.372 | 0.333 | 0.348 | 0.752 | 0.74 | 0.823 | 0.734 | 0.554
5 | NCI-H1734 | 0.722 | 0.684 | 0.616 | 0.688 | 0.598 | 0.517 | 0.499 | 0.567 | 0.486 | 0.454 | 0.513 | 0.459 | 0.41 | 0.289 | 0.439 | 0.509 | 0.488 | 0.342 | 0.315
6 | LOU-NH91 | 0.696 | 0.728 | 0.768 | 0.749 | 0.667 | 0.853 | 0.811 | 0.799 | 0.705 | 0.522 | 0.529 | 0.549 | 0.452 | 0.394 | 0.746 | 0.773 | 0.75 | 0.706 | 0.55
7 | NCI-H2170 | 0.847 | 0.887 | 0.682 | 0.854 | 0.496 | 0.478 | 0.441 | 0.393 | 0.475 | 0.38 | 0.375 | 0.325 | 0.235 | 0.167 | 0.466 | 0.407 | 0.444 | 0.376 | 0.297
8 | NCI-H1793 | 0.812 | 0.842 | 0.655 | 0.852 | 0.59 | 0.49 | 0.512 | 0.516 | 0.509 | 0.317 | 0.333 | 0.285 | 0.235 | 0.219 | 0.439 | 0.4 | 0.368 | 0.302 | 0.316
9 | NCI-H322M | 0.81 | 0.773 | 0.768 | 0.638 | 0.665 | 0.724 | 0.753 | 0.65 | 0.658 | 0.513 | 0.595 | 0.561 | 0.559 | 0.295 | 0.799 | 0.963 | 0.99 | 0.809 | 0.664
10 | PC-3 [JPC-3] | 0.976 | 1.05 | 1.1 | 0.991 | 0.829 | 0.816 | 0.824 | 0.786 | 0.71 | 0.684 | 0.746 | 0.623 | 0.387 | 0.306 | 0.449 | 0.482 | 0.523 | 0.449 | 0.448
11 | EPLC-272H | 0.972 | 0.883 | 0.974 | 0.967 | 0.673 | 0.371 | 0.365 | 0.395 | 0.322 | 0.419 | 0.37 | 0.327 | 0.219 | 0.254 | 0.297 | 0.303 | 0.276 | 0.175 | 0.217
12 | A-427 | 1.13 | 1.11 | 1.04 | 0.907 | 0.798 | 0.601 | 0.587 | 0.539 | 0.521 | 0.67 | 0.837 | 0.65 | 0.757 | 0.589 | 0.365 | 0.327 | 0.368 | 0.318 | 0.266
